Measured values from ChEMBL document CHEMBL3856280, “Targeting the HSP60/10 chaperonin systems of Trypanosoma brucei as a strategy for treating African sleeping sickness” (Bioorg Med Chem Lett, 2016).

Experiments:
HSP60/HSP10 [1] = molecular target: T1, HSP60/HSP10 (Homo sapiens, UniProt P10809); experiment: Inhibition of human mitochondrial HSP60/HSP10-ATPase activity expressed in Escherichia coli DH5alpha/BL21 (DE3) assessed as inhibition of denatured MDH refolding preincubated for 10 mins followed by ATP addition measured after 40 to 60 mins by malachite green dye based fluorescence assay
[2] = Cytotoxicity against HEK293 cells assessed as reduction in cell viability after 48 hrs by alamar blue assay; type: toxicity, cell-based; conditions: human
[3] = Inhibition of pig heart native MDH reporter reaction after 20 to 40 mins by fluorescence based assay; set-up: species or system Sus scrofa
[4] = Cytotoxicity against human THLE3 cells assessed as reduction in cell viability after 48 hrs by alamar blue assay; type: toxicity, cell-based
HSP60/HSP10 [5] = molecular target: T1, HSP60/HSP10; experiment: Inhibition of human mitochondrial HSP60/HSP10 expressed in Escherichia coli DH5alpha/BL21 (DE3) assessed as inhibition of denatured MDH refolding preincubated for 10 mins followed by ATP addition measured after 40 to 60 mins by fluorescence based assay
[6] = system: Trypanosoma brucei brucei; experiment: Antitrypanosomal activity against Trypanosoma brucei brucei Lister 427 VSG 221 [TetR T7RNAP] transgenic bloodstream forms assessed as reduction in cell viability after 48 hrs by alamar blue assay; type: functional; conditions: Lister 427 VSG 221, 48 h
E. coli GroEL/ES [7] = molecular target: T2, E. coli GroEL/ES (Escherichia coli, UniProt P0A6F5); experiment: Inhibition of Escherichia coli GroEL/GroES-ATPase activity expressed in Escherichia coli DH5alpha/BL21 (DE3) assessed as inhibition of denatured MDH refolding preincubated for 10 mins followed by ATP addition measured after 20 to 40 mins by malachite green dye based fluorescence assay
E. coli GroEL/ES [8] = molecular target: T2, E. coli GroEL/ES; experiment: Inhibition of Escherichia coli GroEL/GroES expressed in Escherichia coli DH5alpha/BL21 (DE3) assessed as inhibition of denatured MDH refolding preincubated for 10 mins followed by ATP addition measured after 20 to 40 mins by fluorescence based assay

T2 sequence (P0A6F5 whole entry, looked up): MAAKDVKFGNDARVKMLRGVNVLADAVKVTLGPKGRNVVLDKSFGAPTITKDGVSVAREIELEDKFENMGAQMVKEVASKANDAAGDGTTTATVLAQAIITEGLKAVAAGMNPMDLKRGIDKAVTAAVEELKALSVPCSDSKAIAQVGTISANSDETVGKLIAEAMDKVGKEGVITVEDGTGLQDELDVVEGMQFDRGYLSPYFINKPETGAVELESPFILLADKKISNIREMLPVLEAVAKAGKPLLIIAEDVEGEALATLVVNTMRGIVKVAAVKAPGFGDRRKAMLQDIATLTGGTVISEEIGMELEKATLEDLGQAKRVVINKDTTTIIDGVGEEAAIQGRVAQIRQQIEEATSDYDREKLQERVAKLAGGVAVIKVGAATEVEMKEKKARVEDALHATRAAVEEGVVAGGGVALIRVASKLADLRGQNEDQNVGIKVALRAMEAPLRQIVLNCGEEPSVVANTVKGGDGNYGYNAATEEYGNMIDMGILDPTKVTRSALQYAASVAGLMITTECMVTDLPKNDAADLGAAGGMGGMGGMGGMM
T1 sequence (P10809 whole entry): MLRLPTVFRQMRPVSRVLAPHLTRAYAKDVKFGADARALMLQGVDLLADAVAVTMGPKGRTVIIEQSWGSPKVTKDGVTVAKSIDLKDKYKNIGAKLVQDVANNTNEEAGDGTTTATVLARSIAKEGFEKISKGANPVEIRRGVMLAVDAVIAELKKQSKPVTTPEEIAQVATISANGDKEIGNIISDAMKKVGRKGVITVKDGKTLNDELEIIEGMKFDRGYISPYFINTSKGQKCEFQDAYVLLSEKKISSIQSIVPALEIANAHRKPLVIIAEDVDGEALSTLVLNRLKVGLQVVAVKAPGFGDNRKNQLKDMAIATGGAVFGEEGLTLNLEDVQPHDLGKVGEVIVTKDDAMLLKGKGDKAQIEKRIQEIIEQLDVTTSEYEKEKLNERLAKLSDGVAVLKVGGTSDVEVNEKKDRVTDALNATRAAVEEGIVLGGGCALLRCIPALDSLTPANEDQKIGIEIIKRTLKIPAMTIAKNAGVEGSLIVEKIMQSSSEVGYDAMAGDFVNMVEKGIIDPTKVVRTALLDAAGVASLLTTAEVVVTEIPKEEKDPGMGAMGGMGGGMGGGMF
T1 sequence (P61604 whole entry, further chain): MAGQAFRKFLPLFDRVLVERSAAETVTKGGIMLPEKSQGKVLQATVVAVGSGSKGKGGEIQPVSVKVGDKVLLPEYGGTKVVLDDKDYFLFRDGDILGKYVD

Row | Structure (SMILES) | IC50 (HSP60/HSP10 [1]) | EC50 at 48 h [2] | IC50 [3] | EC50 at 48 h [4] | IC50 (HSP60/HSP10 [5]) | EC50 [6] | IC50 (E. coli GroEL/ES [7]) | IC50 (E. coli GroEL/ES [8])
1 | CS(=O)(=O)Nc1ccc(-c2nc3cc(NS(C)(=O)=O)ccc3o2)cc1 | > 250 µM | > 100 µM | > 63 µM | > 100 µM | > 100 µM | > 42 µM | > 250 µM | > 100 µM
2 | O=S(=O)(Nc1ccc(-c2nc3cc(NS(=O)(=O)c4ccccc4)ccc3o2)cc1)c1ccccc1 | > 250 µM | 15 µM | > 63 µM | 19 µM | > 100 µM | 6.4 µM | 4.6 µM | 3.9 µM
3 | O=S(=O)(Nc1ccc(-c2nc3cc(NS(=O)(=O)c4ccccc4O)ccc3o2)cc1)c1ccccc1O | 33 µM | 18 µM | – | 19 µM | 13 µM | 5 µM | 36 µM | 7.5 µM
4 | O=S(=O)(Nc1ccc(-c2nc3cc(NS(=O)(=O)c4cccc5nsnc45)ccc3o2)cc1)c1cccc2nsnc12 | 152 µM | 52 µM | > 63 µM | > 100 µM | 98 µM | > 42 µM | 127 µM | 22 µM
5 | O=S(=O)(Cc1ccccc1)Nc1ccc(-c2nc3cc(NS(=O)(=O)Cc4ccccc4)ccc3o2)cc1 | > 250 µM | 19 µM | > 63 µM | 29 µM | > 100 µM | 13 µM | 208 µM | 55 µM
6 | O=c1ccc2cc(S(=O)(=O)Nc3ccc(-c4nc5cc(NS(=O)(=O)c6ccc7oc(=O)ccc7c6)ccc5o4)cc3)ccc2o1 | 201 µM | > 100 µM | > 63 µM | > 100 µM | 70 µM | > 42 µM | 83 µM | 18 µM
7 | O=S(=O)(Nc1ccc(-c2nc3cc(NS(=O)(=O)c4cccc5ccccc45)ccc3o2)cc1)c1cccc2ccccc12 | 144 µM | > 100 µM | > 63 µM | 69 µM | > 100 µM | 2.1 µM | 54 µM | 23 µM
8 | CCCS(=O)(=O)Nc1ccc(-c2nc3cc(NS(=O)(=O)CCC)ccc3o2)cc1 | > 250 µM | > 100 µM | > 63 µM | > 100 µM | > 100 µM | 18 µM | > 250 µM | > 100 µM
9 | O=S(=O)(Nc1ccc(-c2nc3cc(NS(=O)(=O)c4cccc5nonc45)ccc3o2)cc1)c1cccc2nonc12 | 212 µM | 45 µM | > 63 µM | 58 µM | 66 µM | > 42 µM | > 250 µM | 32 µM
10 | O=S(=O)(Nc1ccc(-c2nc3cc(NS(=O)(=O)c4ccc5ncsc5c4)ccc3o2)cc1)c1ccc2ncsc2c1 | > 250 µM | 95 µM | > 63 µM | 30 µM | 49 µM | 25 µM | 0.55 µM | 0.81 µM
11 | O=S(=O)(Nc1ccc(-c2nc3cc(NS(=O)(=O)C(F)(F)F)ccc3o2)cc1)C(F)(F)F | > 250 µM | > 100 µM | > 63 µM | > 100 µM | 97 µM | > 42 µM | > 250 µM | 40 µM
12 | O=S(=O)(Nc1ccc(-c2nc3cc(NS(=O)(=O)c4cccs4)ccc3o2)cc1)c1cccs1 | > 250 µM | 26 µM | > 63 µM | 44 µM | 57 µM | 17 µM | 6.7 µM | 4.6 µM
13 | O=S(=O)(Nc1ccc(-c2nc3cc(NS(=O)(=O)c4ccc5nsnc5c4)ccc3o2)cc1)c1ccc2nsnc2c1 | 127 µM | 76 µM | > 63 µM | 45 µM | 62 µM | > 42 µM | 1.7 µM | 3.7 µM
